Experimental data taken from paper PMC4462581 (PLoS ONE, 2015).
pIC50: −log10 of the molar value.

Experiments:
[1] = tested on: BoNT/A intoxication of human ES-MNs (SNAP-25 cleavage); type: cell-based
[2] = tested on: BoNT/A intoxication of mouse ES-MNs (SNAP-25 cleavage); type: cell-based
[3] = tested on: BoNT/E intoxication of human ES-MNs (SNAP-25 cleavage); type: cell-based
[4] = tested on: BoNT/A intoxication of mouse ES-MNs (SNAP-25 cleavage); type: cell-based; remark: listed apart in the source
[5] = molecular target: BoNT/A LC (Clostridium botulinum, UniProt P0DPI0); assay: biochemical
Sequence of BoNT/A LC (P0DPI0 2-448 limits assumed): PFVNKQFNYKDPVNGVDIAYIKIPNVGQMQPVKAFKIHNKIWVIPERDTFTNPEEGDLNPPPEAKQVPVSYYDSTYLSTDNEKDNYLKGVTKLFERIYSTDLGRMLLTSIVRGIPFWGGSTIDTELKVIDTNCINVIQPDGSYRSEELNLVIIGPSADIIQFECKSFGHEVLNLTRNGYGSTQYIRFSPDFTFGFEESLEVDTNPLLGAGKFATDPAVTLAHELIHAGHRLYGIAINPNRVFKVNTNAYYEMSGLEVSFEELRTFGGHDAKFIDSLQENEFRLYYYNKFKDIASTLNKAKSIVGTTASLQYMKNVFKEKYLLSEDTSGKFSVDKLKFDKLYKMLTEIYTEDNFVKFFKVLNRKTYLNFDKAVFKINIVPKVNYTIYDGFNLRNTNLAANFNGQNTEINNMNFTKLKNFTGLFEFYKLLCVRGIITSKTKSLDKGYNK

SMILES	Protection of SNAP-25 against BoNT/A, pre-intoxication, dose dependence [1]	Protection against BoNT/A (SNAP-25 cleavage), library screen outcome [2]	Protection of SNAP-25 against BoNT/E, 30 min post-intoxication [3]	Protection of SNAP-25 against BoNT/E, 60 min post-intoxication [3]	Antagonism of BoNT/A mediated SNAP-25 cleavage, 60 min post-intoxication [1]	Protection of SNAP-25 against BoNT/A, western blot [4]	pIC50 [5]
CO/C1=C\C(C)=C\[C@@H](C)[C@@H](O)[C@@H](C)C/C(C)=C/C=C/[C@H](OC)[C@@H]([C@@H](C)[C@@H](O)[C@H](C)[C@@]2(O)C[C@@H](O)[C@H](C)[C@@H](C(C)C)O2)OC1=O [bafilomycin]	dose-dependent protection	–	–	–	–	–	–
N=C(N)c1ccc(OCCCCCOc2ccc(C(=N)N)cc2)cc1 [Pentamidine]	qualitatively lower level of SNAP-25 cleavage protection	identified as potential BoNT/A intoxication inhibitors	not statistically significant	not statistically significant	trended toward, but did not reach, statistical significance	qualitatively lower level of SNAP-25 cleavage protection	< 4.70
O=C1C(=O)c2ccccc2-c2ccccc21 [9,10-Phenanthrenequinone]	–	identified as potential BoNT/A intoxication inhibitors	statistically significant protection	statistically significant protection	–	–	< 4.70
O=C1C(Cl)=C(NCCN2CCOCC2)C(=O)c2ncccc21 [NSC 663284]	–	identified as potential BoNT/A intoxication inhibitors	statistically significant protection	statistically significant protection	–	–	< 4.70
CC1(C)C(=O)N=C2C1=C(O)C(=O)c1ccccc12 [BVT 948]	–	identified as potential BoNT/A intoxication inhibitors	efficacious	–	–	–	< 4.70
